# Results from patent publication US7935341B2, “Antibodies to complementary peptides of thrombin or portions thereof” (Orthologic Corp., priority 2005, dated 2011).
# No end group written: not given here.
# Target: T1, biotinylated thrombin ([B]-thrombin) (Homo sapiens, UniProt P00734)
# T1 construct: present in blood plasma in the form of a precursor, pro-thrombin
# Test: Binding of biotinylated thrombin to complementary peptides coated on ELISA plates
# Settings: for specific binding of [B]-thrombin to the complementary peptide: peptide-coated ELISA plate, total minus nonspecific binding (excess unlabeled thrombin), HRP-avidin readout at 450 nm
# Protocol: Complementary peptides (CPs) (AC-23, 23C53, C1053 and ND1053) were coated onto individual wells of 96 well plates by incubating in a 10 μg/ml solution of peptide in carbonate buffer (pH 9.5) or in Phosphate Buffered Saline (PBS) overnight at room temperature. The amino acid sequences of particular complementary peptides are described below and are depicted in FIG. 4. In particular, the following CPs were generated:
# Prior to use, the wells were covered with blocking solution containing 0.1% bovine serum albumin (BSA) to reduce non-specific binding. The plates were rinsed and stored at 4° C. until used. To perform the binding experiments, the peptide-coated ELISA plates were blocked with 200 μl per well of blocking buffer (0.1% BSA (w/v) in PBS) for 90 minutes at room temperature. The plates were subsequently rinsed two times with distilled water. Total and nonspecific (NS) binding was determined, respectively, by adding 100 μl per well of 125 ng/ml of biotinylated thrombin ([B]-thrombin) alone or containing 12.5 μg/ml of unlabeled thrombin for 90 minutes at room temperature. The plates were then rinsed four times with PBSTT (PBS+0.5% v/v Tween 20 (polyoxyethylene sorbitan monolaurate)), and 100 μl of Avidin-HRP antibody (Becton Dickinson) diluted to 1:1000 was added per well for 120 minutes at room temperature. The plates were subsequently rinsed four times with PBSTT, and 100 μl of Turbo TMB substrate (Pierce) was added for 30 minutes at room temperature. The reaction was stopped by adding 100 μl per well of 1 N H2SO4 and the plates were read immediately at 450 nm using a Spectra Max Plus plate reader (Molecular Device). The specific binding of [B]-thrombin to the coated wells was determined by subtracting non-specific binding from total binding.
# Specific thrombin binding was determined using indicated concentrations of biotinylated thrombin alone and with a 100-fold excess of unlabeled thrombin (to define nonspecific binding).
"EC50 (increasing concentrations of [B]-thrombin on AC-23-coated wells, n=2±SD, read-out: half maximal binding of [B]-thrombin) [nM]",specific binding of [B]-thrombin to the complementary peptide,Sequence
4.8 ± 0.2,specifically bound,KGSPTVTFTGIPCFPFIRLVTS [AC-23]
,specifically bound,KGSPTVTFTGIPSFPFIRLVTS (complementary peptides) [23C53]
,not,TFTGIPSFPF (complementary peptides) [10C53]
